Results: patent publication US6369069B1 (Aventis Pharma Deutschland GmbH, priority 1998, dated 2002)

System: Na^+-dependent Cl^−/HCO3^− exchanger (NCBE)
Assay: Inhibition of the Na+-dependent Cl−/HCO3− exchanger (NCBE) in human endothelial cells (pHi recovery, BCECF fluorescence, FLIPR)
Type: cell-based
Conditions: 10 μM
Experimental: Inhibition of the Na^+-dependent Cl^−/HCO3^− exchanger (NCBE) in human endothelial cells
Human endothelial cells (ECV-304) were detached form culture flasks with the aid of trypsin/EDTA buffer (0.05/0.02% in phosphate buffer) and, after centrifugation (100 g, 5 min), taken up in a buffered saline solution (mmol/l: 115 NaCl, 20 NH4Cl, 5 KCl, 1 CaCl2, 1 MgSO4, 20 N-(2-hydroxyethyl)-piperazine-N[…]-2-ethanesulfonic acid (HEPES), 5 glucose and 1 g/l of bovine serum albumin; pH 7.4). This cell suspension was incubated at 37 °C. for 20 min with 5 μM BCECF acetoxymethyl ester. The cells were then washed and resuspended in a sodium- and bicarbonate-free buffer solution (mmol/l: 5 HEPES, 133.8 choline chloride, 4.7 KCl, 1.25 MgCl2, 0.97 K2HPO4, 0.23 KH2PO4, 5 glucose; pH 7.4).
For the subsequent fluorescence measurement in the FLIPR (Fluorescent Imaging Plate Reader), 100 μl of this cell suspension in each case containing 20,000 cells were added by pipette per well of a 96-well microtiter plate and this microtiter plate was centrifuged (100 g, 5 min). In the FLIPR, 100 μl of buffer solution in each case were then removed from a further prepared microtiter plate and added by pipette to each of the 96 wells of the measuring plate. In this case, for a 100% control, i.e. a recovery of the intracellular pH (pHi) by means of the NCBE, a bicarbonate- and sodium-containing buffer solution (mmol/l: 5 HEPES, 93.8 NaCl, 40 NaHCO3, 4.7 KCl, 1.25 CaCl2, 1.25 MgCl2, 0.97 Na2HPO4, 0.23 NaH2PO4, 5 glucose; pH 7.4) which contained 50 μM HOE 642 was used. For a 0% control, i.e. no pHi recovery at all, a bicarbonate-free, sodium-containing buffer solution (mmol/l: 5 HEPES, 133.8 NaCl, 4.7 KCl, 1.25 CaCl2, 1.25 MgCl2, 0.97 Na2HPO4, 0.23 NaH2PO4, 5 glucose; pH 7.4) to which 50 μM HOE 642 were also added was employed. The compounds according to the invention were added in various concentrations of the sodium- and bicarbonate-containing solution. After addition of the buffer solutions to the dye-loaded acidified cells situated in the measuring plate, the increase in the fluorescence intensity which corresponded to an increase in the pHi was determined in each well of the microtiter plate.
The kinetics were in this case recorded at 35° C. over a period of 2 minutes. The increase in the fluorescence intensities for different concentrations of the compounds according to the invention was related to the two controls and from this the inhibitory action of the substances was determined.

| Structure (SMILES) | Residual activity % of the NCBE at 10 μM [%] |
| --- | --- |
| CCCC(=O)N(CCO)Cc1ccc(-c2ccccc2S(=O)(=O)NC#N)cc1 [Example 2] | 78.1 |
| CCCC(=O)N(Cc1ccc(OC)cc1)Cc1ccc(-c2ccccc2S(=O)(=O)NC#N)cc1 [Example 3] | 80.9 |
| CCCC(=O)N(Cc1ccc(-c2ccccc2S(=O)(=O)NC#N)cc1)C1CCCCC1 [Example 6] | 84.5 |
| N#CNS(=O)(=O)c1ccccc1-c1ccc(CN(Cc2ccccc2)C(=O)CCC2CCCCC2)cc1 [Example 7] | 33.0 |
| N#CNS(=O)(=O)c1ccccc1-c1ccc(CN(CCO)C(=O)CCC2CCCCC2)cc1 [Example 8] | 86.7 |
| COc1ccc(CN(Cc2ccc(-c3ccccc3S(=O)(=O)NC#N)cc2)C(=O)CCC2CCCCC2)cc1 [Example 9] | 86.6 |
| N#CNS(=O)(=O)c1ccccc1-c1ccc(CN(Cc2ccc(Cl)cc2)C(=O)CCC2CCCCC2)cc1 [Example 10] | 84.9 |
| N#CNS(=O)(=O)c1ccccc1-c1ccc(CN(C(=O)CCC2CCCCC2)C2CCCCC2)cc1 [Example 12] | 92.9 |
| N#CNS(=O)(=O)c1ccccc1-c1ccc(CN(Cc2ccccc2)C(=O)C2CCCCC2)cc1 [Example 13] | 74.7 |
| N#CNS(=O)(=O)c1ccccc1-c1ccc(CN(CCO)C(=O)C2CCCCC2)cc1 [Example 14] | 88.7 |
| COc1ccc(CN(Cc2ccc(-c3ccccc3S(=O)(=O)NC#N)cc2)C(=O)C2CCCCC2)cc1 [Example 15] | 67.6 |
| N#CNS(=O)(=O)c1ccccc1-c1ccc(CN(Cc2ccc(Cl)cc2)C(=O)C2CCCCC2)cc1 [Example 16] | 56.4 |
| COc1cccc(CC(=O)N(Cc2ccccc2)Cc2ccc(-c3ccccc3S(=O)(=O)NC#N)cc2)c1 [Example 19] | 25.9 |
| COc1cccc(CC(=O)N(CCO)Cc2ccc(-c3ccccc3S(=O)(=O)NC#N)cc2)c1 [Example 20] | 37.1 |
| COc1ccc(CN(Cc2ccc(-c3ccccc3S(=O)(=O)NC#N)cc2)C(=O)Cc2cccc(OC)c2)cc1 [Example 21] | 52.3 |
| COc1cccc(CC(=O)N(Cc2ccc(-c3ccccc3S(=O)(=O)NC#N)cc2)C2CCCCC2)c1 [Example 24] | 92.1 |
| N#CNS(=O)(=O)c1ccccc1-c1ccc(CN(Cc2ccccc2)C(=O)Cc2cccs2)cc1 [Example 25] | 16.6 |
| N#CNS(=O)(=O)c1ccccc1-c1ccc(CN(CCO)C(=O)Cc2cccs2)cc1 [Example 26] | 47.6 |
| COc1ccc(CN(Cc2ccc(-c3ccccc3S(=O)(=O)NC#N)cc2)C(=O)Cc2cccs2)cc1 [Example 27] | 35.5 |
| N#CNS(=O)(=O)c1ccccc1-c1ccc(CN(Cc2ccc(Cl)cc2)C(=O)Cc2cccs2)cc1 [Example 28] | 95.2 |
| N#CNS(=O)(=O)c1ccccc1-c1ccc(CN(C(=O)Cc2cccs2)C2CCCCC2)cc1 [Example 30] | 95.2 |
| CC(C)(C)c1ccc(C(=O)N(Cc2ccccc2)Cc2ccc(-c3ccccc3S(=O)(=O)NC#N)cc2)cc1 [Example 31] | 52.2 |
| CC(C)(C)c1ccc(C(=O)N(CCO)Cc2ccc(-c3ccccc3S(=O)(=O)NC#N)cc2)cc1 [Example 32] | 68.0 |
| COc1ccc(CN(Cc2ccc(-c3ccccc3S(=O)(=O)NC#N)cc2)C(=O)c2ccc(C(C)(C)C)cc2)cc1 [Example 33] | 67.2 |
| N#CNS(=O)(=O)c1ccccc1-c1ccc(CN(Cc2ccccc2)C(=O)c2ccccc2F)cc1 [Example 37] | 52.0 |

| Structure (SMILES) | Residual activity % of the NCBE at 10 μM [%] |
| --- | --- |
| N#CNS(=O)(=O)c1ccccc1-c1ccc(CN(CCO)C(=O)c2ccccc2F)cc1 [Example 38] | 66.7 |
| COc1ccc(CN(Cc2ccc(-c3ccccc3S(=O)(=O)NC#N)cc2)C(=O)c2ccccc2F)cc1 [Example 39] | 51.3 |
| C=CCOC(=O)N(Cc1ccccc1)Cc1ccc(-c2ccccc2S(=O)(=O)NC#N)cc1 [Example 43] | 41.6 |
| C=CCOC(=O)N(CCO)Cc1ccc(-c2ccccc2S(=O)(=O)NC#N)cc1 [Example 44] | 82.6 |
| C=CCOC(=O)N(Cc1ccc(OC)cc1)Cc1ccc(-c2ccccc2S(=O)(=O)NC#N)cc1 [Example 45] | 80.1 |
| C=CCOC(=O)N(Cc1ccc(Cl)cc1)Cc1ccc(-c2ccccc2S(=O)(=O)NC#N)cc1 [Example 46] | 52.2 |
| COc1cc(C(=O)N(Cc2ccccc2)Cc2ccc(-c3ccccc3S(=O)(=O)NC#N)cc2)cc(OC)c1OC [Example 49] | 75.8 |
| COc1cc(C(=O)N(Cc2ccc(Cl)cc2)Cc2ccc(-c3ccccc3S(=O)(=O)NC#N)cc2)cc(OC)c1OC [Example 52] | 59.9 |
| N#CNS(=O)(=O)c1ccccc1-c1ccc(CN(Cc2ccccc2)C(=O)c2ccccc2Cl)cc1 [Example 55] | 29.3 |
| N#CNS(=O)(=O)c1ccccc1-c1ccc(CN(CCO)C(=O)c2ccccc2Cl)cc1 [Example 56] | 69.0 |
| COc1ccc(CN(Cc2ccc(-c3ccccc3S(=O)(=O)NC#N)cc2)C(=O)c2ccccc2Cl)cc1 [Example 57] | 82.1 |
| N#CNS(=O)(=O)c1ccccc1-c1ccc(CN(Cc2ccc(Cl)cc2)C(=O)c2ccccc2Cl)cc1 [Example 58] | 59.4 |
| N#CNS(=O)(=O)c1ccccc1-c1ccc(CN(Cc2ccccc2)C(=O)c2ccccc2)cc1 [Example 61] | 56.6 |
| CC(=O)N(Cc1ccc(Cl)cc1)Cc1ccc(-c2ccccc2S(=O)(=O)NC#N)cc1 [Example 62] | 94.5 |
| C/C=C/C(=O)N(Cc1ccc(OC)cc1)Cc1ccc(-c2ccccc2S(=O)(=O)NC#N)cc1 [Example 64] | 88.0 |
| CCCCC(=O)N(Cc1ccc(Cl)cc1)Cc1ccc(-c2ccccc2S(=O)(=O)NC#N)cc1 [Example 65] | 80.0 |
| N#CNS(=O)(=O)c1ccccc1-c1ccc(CN(Cc2ccc(Cl)cc2)C(=O)CCc2ccccc2)cc1 [Example 66] | 83.1 |
| Cc1ccc(C(=O)N(CCO)Cc2ccc(-c3ccccc3S(=O)(=O)NC#N)cc2)cc1 [Example 68] | 94.4 |
| COc1ccc(CN(Cc2ccc(-c3ccccc3S(=O)(=O)NC#N)cc2)C(C)=O)cc1 [Example 69] | 95.4 |
| COc1ccc(CN(Cc2ccc(-c3ccccc3S(=O)(=O)NC#N)cc2)C(=O)c2ccc(C)cc2)cc1 [Example 70] | 94.7 |
| N#CNS(=O)(=O)c1ccccc1-c1ccc(CN(Cc2ccccc2Cl)C(=O)c2cc3ccccc3s2)cc1 [Example 71] | 35.2 |
| CC(C)CN(Cc1ccc(-c2ccccc2S(=O)(=O)NC#N)cc1)C(=O)c1cc2ccccc2s1 [Example 72] | 86.3 |
| C[C@@H](c1ccccc1)N(Cc1ccc(-c2ccccc2S(=O)(=O)NC#N)cc1)C(=O)c1cc2ccccc2s1 [Example 73] | 61.0 |
| COc1ccccc1CN(Cc1ccc(-c2ccccc2S(=O)(=O)NC#N)cc1)C(=O)c1cc2ccccc2s1 [Example 74] | 54.7 |
| Cc1ccc(CN(Cc2ccc(-c3ccccc3S(=O)(=O)NC#N)cc2)C(=O)c2cc3ccccc3s2)cc1 [Example 75] | 80.3 |
